In patent EP2233566A1, “Generation of pancreatic progenitor cells” (Vrije Universiteit Brussel, priority 2009, dated 2010):

Tested on: human embryonic stem cells-derived definitive endoderm
Assay: Hepatic differentiation (AFP / albumin expression) of hES cell-derived definitive endoderm
Assay type: cell-based
Protocol: Cells were split in 4-well plates and differentiation performed in five stages as previously published (D'Amour et al. 2006 (supra); Table 2). Briefly, for DE induction 80% confluent cultures were washed with PBS and treated with 100 ng/ml Activin-A (RnD Systems) and 25 ng/ml Wnt3a (RnD Systems) for 24h in RPMI (Invitrogen) supplemented with antibiotics and Glutamax; then they were further treated with 100 ng/ml Activin-A in RPMI containing 0.2% FBS (PAA Laboratories) for 48h. PGT stage cells were treated with 50 ng/ml FGF10 (RnD Systems), 250 nM KAAD-Cyclopamine (Calbiochem) and 2% FBS in RPMI medium for 3 or 4 days. In the PFG stage (3-4 days), the medium was changed to DMEM supplemented with Glutamax, antibiotics, 1% B27 (Invitrogen), 2 µM retinoic acid (RA, Sigma), FGF10 and KAAD-Cyclopamine. […]
At each stage, cultures were washed with PBS, fixed for 10-15 min at room temperature in 4% formaldehyde and rinsed several times. […] Immunocytochemistry was performed for the detection of Hnf1B using a donkey horse radish peroxidase (HRP)-conjugated secondary antibody and detected by the ABC complex (Dako) as previously described in Mfopou et al. 2007 (Stem Cells 25: 1156-1165). […]

SMILES: Cc1c[nH]c(/C=C2\C(=O)Nc3ccccc32)c1CCC(=O)O [SU5402]
- albumin expression by the pancreas endoderm stage (SU5402 (250 nM) alone): attenuates albumin expression
- reduced hepatic differentiation (SU5402 added in PGT and PFG stages (FGF signalling inhibition)): at least 50%
